Measurements as given in publication PMC4810081, “Venetoclax (ABT-199) Might Act as a Perpetrator in Pharmacokinetic Drug–Drug Interactions” (Pharmaceutics, 2016).

What was measured:
BCRP = target: T1, BCRP (Homo sapiens, UniProt Q9UNQ0); test: BCRP inhibition, flow cytometric pheophorbide A assay in MDCKII-BCRP cells; assay type: in vitro ADME
T1 construct: expressed in transfected cells; host or cells: MDCKII-BCRP (gift of A. H. Schinkel and P. Borst)
Text: MDCKII cells. The transporter over-expressing cell lines MDCKII-MDR1 [5], MDCKII-MRP2 [6], and MDCKII-BCRP [7] and the corresponding parental cell line MDCKII were used to assess the sensitivity of cells with and without P-gp, multidrug resistance-associated protein 2 (MRP2/ABCC2), or BCRP expression. Moreover, MDCKII-BCRP cells were used to assess BCRP inhibition by venetoclax. MDCKII over-expressing cell lines were kindly provided by A. H. Schinkel and P. Borst (Amsterdam, The Netherlands). The parental cell line MDCKII (available at ATCC, Manassas, VA, USA) was used as a control. The cells were cultured in Dulbecco’s Modified Eagle’s Medium (DMEM) containing 10% FCS, 2 mM of glutamine, 100 U/mL of penicillin, and 100 µg/mL of streptomycin sulfate.
Flow cytometric BCRP inhibition assays were conducted in control (MDCKII) and BCRP over-expressing cells (MDCKII-BCRP) using PhA as a fluorescent BCRP substrate as described and validated previously. Inhibition of BCRP leads to an increase in intracellular PhA concentrations. Each experiment was performed in triplicate. Venetoclax was tested from 0.1 up to 100 µM.

[1] = Intestinal concentration by FDA formula; settings: after a dose of 250 mg, according to FDA formula (dose/250 mL)
Description: Thus, the question of whether these effects will also play a role in the clinical situation arises. Therapeutic plasma concentrations of venetoclax reach about 5 µM [3, 34, 35], a similar range to concentrations inhibiting drug transporters and CYP in vitro. […] Thus, even the moderate inhibition of P-gp by venetoclax might be relevant and should be tested in vivo.

Bcl-xL = system: Bcl-xL; set-up: method as in PMID 26639348, PMID 23291630; settings: cited from earlier work
UGT1A3 = test: Induction assay, UGT1A3 mRNA by real-time RT-PCR in LS180 cells; assay type: in vitro ADME, human; settings: four days, 10 µM
Description: (§1) LS180 cells. The human colon adenocarcinoma cell line LS180 (available at ATCC, Manassas, VA, USA) is one of the standard models for investigating pregnane X receptor (PXR) and aryl hydrocarbon receptor (AhR) mediated induction and was thus used for induction experiments. Cells were cultured under standard cell culture conditions with DMEM supplemented with 10% FCS, 2 mM of glutamine, 100 U/mL of penicillin, 100 µg/mL of streptomycin sulfate, and 0.1 mM of nonessential amino acids.
(§2) For the induction experiments, LS180 cells were seeded in 75 cm^2 culturing flasks and incubated for three days. […]
(§3) RNA was isolated using the GenElute™ Mammalian Total RNA Miniprep Kit, and cDNA was synthesized with the RevertAid™ H Minus First Strand cDNA Synthesis Kit according to the manufacturer's instructions. mRNA expression was quantified by real-time RT-PCR with the LightCycler® 480 (Roche Applied Science, Mannheim, Germany) as described previously. […] Data were evaluated via calibrator-normalized relative quantification with efficiency correction using the LightCycler® 480 software version 1.5 (Roche Applied Science, Mannheim, Germany). […] The following target genes were quantified: CYP1A1, CYP1A2, CYP3A4, ABCB1, ABCC2, ABCG2, SLCO1B1 (coding for OATP1B1), UDP-glucuronosyltransferase 1A3 (UGT1A3), and UGT1A9.

[2] = Growth inhibition assay in MDCKII-BCRP cells; assay type: cell-based; settings: dog, MDCKII-BCRP cells (BCRP over-expressing)
Description: MDCKII cells. […] Moreover, MDCKII-BCRP cells were used to assess BCRP inhibition by venetoclax. MDCKII over-expressing cell lines were kindly provided by A. H. Schinkel and P. Borst (Amsterdam, The Netherlands). The parental cell line MDCKII (available at ATCC, Manassas, VA, USA) was used as a control. The cells were cultured in Dulbecco’s Modified Eagle’s Medium (DMEM) containing 10% FCS, 2 mM of glutamine, 100 U/mL of penicillin, and 100 µg/mL of streptomycin sulfate. Growth inhibition assays in LS180 cells were conducted to determine suitable maximum concentrations for the induction assay without profound antiproliferative effects. Proliferation was quantified by crystal violet staining of the surviving cells as described previously. […] Growth inhibition assays in MDCKII, and their MRP2 or BCRP over-expressing counterparts ([…], MDCKII-BCRP) and in LLC-PK1 and the corresponding P-gp over-expressing cell line L-MDR1 were conducted to evaluate whether venetoclax sustains its efficacy in MDR cell lines.

CYP1A2 = target: T2, CYP1A2 (Homo sapiens, UniProt P05177); test: CYP1A2 inhibition, P450-Glo CYP1A2 Screening System; assay type: in vitro ADME; settings: luciferin-ME substrate, 0.05–100 µM tested
T2 construct: purchased Promega Corporation (Madison, WI, USA)
T2 sequence (P05177 whole entry): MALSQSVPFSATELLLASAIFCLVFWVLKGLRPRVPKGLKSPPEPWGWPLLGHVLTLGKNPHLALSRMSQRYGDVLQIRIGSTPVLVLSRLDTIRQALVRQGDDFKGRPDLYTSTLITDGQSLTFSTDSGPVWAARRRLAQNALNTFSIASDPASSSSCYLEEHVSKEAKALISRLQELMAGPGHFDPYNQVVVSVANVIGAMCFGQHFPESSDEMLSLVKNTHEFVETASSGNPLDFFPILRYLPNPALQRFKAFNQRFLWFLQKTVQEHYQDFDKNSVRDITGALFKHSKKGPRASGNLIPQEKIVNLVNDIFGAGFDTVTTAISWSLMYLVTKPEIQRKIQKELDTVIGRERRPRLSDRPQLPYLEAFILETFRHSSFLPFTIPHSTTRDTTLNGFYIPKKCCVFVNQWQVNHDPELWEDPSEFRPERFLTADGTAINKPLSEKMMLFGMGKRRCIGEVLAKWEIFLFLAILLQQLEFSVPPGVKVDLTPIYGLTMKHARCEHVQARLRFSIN
Description: Inhibition studies for CYP2B6, CYP2D6, CYP2C19 and CYP3A4 were performed with the CYP2B6/EFC, CYP2D6/AMMC, the CYP2C19/CEC, and the CYP3A4/BFC High Throughput Inhibitor Screening Kit according to the manufacturer’s instructions. The kits contain the respective recombinant CYP and fluorogenic substrates, which are blocked dyes emitting a fluorescence signal when cleaved by the enzyme. For testing CYP1A2 inhibition, the P450-Glo CYP1A2 Screening System was used according to the manufacturer’s instructions. The kit contains the luminogenic CYP1A2 substrate luciferin-ME, which is converted by CYP1A2 into luciferin-generating light when incubated with the luciferin detection reagent of the kit. Eight concentrations of venetoclax in duplicates (0.009–20 µM) were tested in the fluorescence assays, and eight concentrations in triplicate (0.05–100 µM) were tested for the luminogenic assay. Each experiment was conducted in triplicate.

CYP3A4 = test: Induction assay, CYP3A4 mRNA by real-time RT-PCR in LS180 cells; assay type: in vitro ADME, human; settings: four days, 0.01–10 µM
Description: as §1, §2, §3

ABCG2 = test: Induction assay, ABCG2 mRNA by real-time RT-PCR in LS180 cells; assay type: in vitro ADME, human; settings: four days, 0.01–10 µM
Description: as §1, §2, §3

T1 sequence (Q9UNQ0 whole entry): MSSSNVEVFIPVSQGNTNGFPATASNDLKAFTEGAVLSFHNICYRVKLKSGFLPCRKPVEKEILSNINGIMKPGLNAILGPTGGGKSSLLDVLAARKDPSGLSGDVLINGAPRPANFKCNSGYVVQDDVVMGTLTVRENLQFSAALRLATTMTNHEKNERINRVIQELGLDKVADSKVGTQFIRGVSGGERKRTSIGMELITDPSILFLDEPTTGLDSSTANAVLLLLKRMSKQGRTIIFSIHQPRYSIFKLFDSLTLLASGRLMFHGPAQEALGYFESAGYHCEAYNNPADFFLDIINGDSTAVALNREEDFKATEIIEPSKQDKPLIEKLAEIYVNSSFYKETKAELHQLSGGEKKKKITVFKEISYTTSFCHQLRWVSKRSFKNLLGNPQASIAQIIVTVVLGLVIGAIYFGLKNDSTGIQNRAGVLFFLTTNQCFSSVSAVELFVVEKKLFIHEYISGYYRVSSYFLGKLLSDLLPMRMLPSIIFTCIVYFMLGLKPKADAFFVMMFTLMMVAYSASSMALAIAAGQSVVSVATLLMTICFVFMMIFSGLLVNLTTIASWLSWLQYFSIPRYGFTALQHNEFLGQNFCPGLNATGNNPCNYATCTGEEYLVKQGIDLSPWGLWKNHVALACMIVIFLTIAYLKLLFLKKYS

For `CC1(C)CCC(CN2CCN(c3ccc(C(=O)NS(=O)(=O)c4ccc(NCC5CCOCC5)c([N+](=O)[O-])c4)c(Oc4cnc5[nH]ccc5c4)c3)CC2)=C(c2ccc(Cl)cc2)C1` [Venetoclax], the IC50 (BCRP) is listed as 19.6 ± 7.3 µM, the “concentration reached in the intestine” value [1] is listed as “about 1 mM” and the Bcl-xL inhibition (Bcl-xL) is listed as “does not inhibit”. For the same molecule, the “mRNA expression of UGT1A3” value (UGT1A3) was “induced”, the IC50 [2] was 15.7 ± 0.4 µM and the “IC50 CYP1A2 inhibition” value (CYP1A2) was “no inhibition”. For the same molecule, the “mRNA expression of CYP3A4” value (CYP3A4) was “unchanged” and the “mRNA expression of ABCG2” value (ABCG2) was “unchanged”.
